Activity calls are given as the source filed them.
What was measured:
[1] = biological target: Low molecular weight phosphotyrosine protein phosphatase (Homo sapiens, UniProt P24666); assay type: functional; conditions: read-out: IC50_Mean;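 further: Dose-response confirmation assay measuring inhibition of LMPTP enzyme activity by fluorescence intensity read-out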
[2] = control 3'UTR Renilla luciferase suppression, dose response, counter-screen for Shn3 inhibitor project, cell-based, Clone20-Shn3RL, cherry-picked (AID 624133); assay type: functional
[3] = Shn3 3'UTR reporter inhibitors, dose response, cell-based, Clone20 osteoblasts, firefly luciferase, cherry-picked (AID 624132); assay type: functional;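 further: firefly luciferase luminescence from reporter carrying the Shn3 3'UTR in osteoblasts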
[4] = HepG2 cell cytotoxicity, dose response, cytotoxicity control for Shn3 inhibitor project, CellTiter-Glo, cherry-picked (AID 624134); assay type: functional, cell-based
Insulin-degrading enzyme [5] = biological target: T1, Insulin-degrading enzyme (Homo sapiens, UniProt P14735); test: activators of recombinant IDE enzyme, dose response, counter-screen for IDE activator project, biochemical, fluorescence polarization (AID 588681)
T1 sequence (P14735 whole entry): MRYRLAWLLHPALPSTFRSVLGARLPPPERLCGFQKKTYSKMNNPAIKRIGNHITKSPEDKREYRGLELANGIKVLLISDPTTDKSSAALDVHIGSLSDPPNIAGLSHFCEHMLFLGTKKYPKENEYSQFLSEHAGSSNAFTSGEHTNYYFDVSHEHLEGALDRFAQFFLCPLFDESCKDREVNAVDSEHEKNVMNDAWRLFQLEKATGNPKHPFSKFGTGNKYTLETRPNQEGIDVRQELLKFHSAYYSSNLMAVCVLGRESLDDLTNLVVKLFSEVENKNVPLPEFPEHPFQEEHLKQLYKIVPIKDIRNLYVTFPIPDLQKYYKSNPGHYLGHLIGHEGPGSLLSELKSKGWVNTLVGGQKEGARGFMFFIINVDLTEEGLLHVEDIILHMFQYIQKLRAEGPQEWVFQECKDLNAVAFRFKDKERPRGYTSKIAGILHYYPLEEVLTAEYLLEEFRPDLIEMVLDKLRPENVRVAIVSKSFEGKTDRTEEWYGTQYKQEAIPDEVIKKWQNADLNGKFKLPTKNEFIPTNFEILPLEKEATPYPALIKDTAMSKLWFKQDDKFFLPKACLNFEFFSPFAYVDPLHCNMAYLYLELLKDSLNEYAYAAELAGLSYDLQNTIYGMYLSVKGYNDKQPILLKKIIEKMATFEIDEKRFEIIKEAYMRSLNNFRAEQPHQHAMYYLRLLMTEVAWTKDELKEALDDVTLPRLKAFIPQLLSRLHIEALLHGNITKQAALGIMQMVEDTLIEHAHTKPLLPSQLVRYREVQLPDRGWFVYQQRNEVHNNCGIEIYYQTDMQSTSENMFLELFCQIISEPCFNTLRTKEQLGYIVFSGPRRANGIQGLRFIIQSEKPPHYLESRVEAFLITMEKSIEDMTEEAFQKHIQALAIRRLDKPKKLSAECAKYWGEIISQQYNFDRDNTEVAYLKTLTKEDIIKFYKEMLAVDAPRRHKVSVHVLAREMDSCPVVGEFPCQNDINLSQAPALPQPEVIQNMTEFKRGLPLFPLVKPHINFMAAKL

Insulin-degrading enzyme [6] = biological target: T1, Insulin-degrading enzyme; test: activators of endogenous IDE in HEK cells, dose response, cell-based, fluorescence polarization (AID 588439); assay type: functional
Estrogen receptor beta = Estrogen receptor beta (Homo sapiens, UniProt Q92731); test: ERβ–SRC-3 coactivator interaction inhibitors, confirmation, orthogonal assay, biochemical, ELISA, streptavidin-HRP readout (AID 1060)
Chain of Estrogen receptor beta (Q92731 whole entry): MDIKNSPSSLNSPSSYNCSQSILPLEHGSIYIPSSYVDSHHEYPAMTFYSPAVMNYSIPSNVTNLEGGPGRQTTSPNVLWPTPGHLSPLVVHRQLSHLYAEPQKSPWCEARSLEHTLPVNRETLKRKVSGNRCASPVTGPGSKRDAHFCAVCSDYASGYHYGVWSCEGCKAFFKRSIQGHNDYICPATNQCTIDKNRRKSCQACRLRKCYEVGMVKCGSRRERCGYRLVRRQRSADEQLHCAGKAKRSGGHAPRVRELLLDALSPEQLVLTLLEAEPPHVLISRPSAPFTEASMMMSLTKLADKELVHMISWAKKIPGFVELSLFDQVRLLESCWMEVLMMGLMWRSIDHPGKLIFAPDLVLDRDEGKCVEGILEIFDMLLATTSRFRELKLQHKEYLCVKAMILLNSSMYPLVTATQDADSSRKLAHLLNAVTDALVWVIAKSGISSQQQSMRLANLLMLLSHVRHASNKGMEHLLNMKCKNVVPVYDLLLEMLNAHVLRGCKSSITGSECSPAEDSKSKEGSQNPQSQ

Protein Tat = biological target: T2, Protein Tat (Human immunodeficiency virus type 1 group M subtype B (isolate HXB2)(HIV-1), UniProt P04608); assay type: functional;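 further: tat binding to TAR RNA read out by fluorescence polarization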
T2 sequence (P04608 whole entry): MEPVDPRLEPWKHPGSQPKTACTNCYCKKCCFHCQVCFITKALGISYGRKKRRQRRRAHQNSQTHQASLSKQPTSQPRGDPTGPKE

HEK293 [7] = test: HEK cell cytotoxicity by LDH release, dose response, cytotoxicity control for IDE activator project, fluorescence, HEK cells (AID 588440); assay type: functional, cell-based; conditions: Homo sapiens;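 further: cytotoxicity by LDH release measuring loss of membrane integrity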
HEK293 [8] = test: optical interference in Abeta FP readout, dose response, artefact control for IDE activator project, biochemical, fluorescence polarization (AID 588442); assay type: functional, cell-based; conditions: Homo sapiens
[9] = THP-1 cell cytotoxicity, dose response, cytotoxicity control for Vif-APOBEC3G degradation inhibitor project, THP-1 cells (AID 1117359); assay type: functional; conditions: Human immunodeficiency virus 1, THP-1
[10] = biological target: T3, Sentrin-specific protease 6 (Homo sapiens, UniProt Q9GZR1); test: SAR Analysis of small molecule inhibitors of Sentrin-specific protease 6 (SENP6) using a Luminescent assay. [Related pubchem assays (depositor defined):AID2582, AID2599]; assay type: functional
T3 sequence (Q9GZR1 whole entry): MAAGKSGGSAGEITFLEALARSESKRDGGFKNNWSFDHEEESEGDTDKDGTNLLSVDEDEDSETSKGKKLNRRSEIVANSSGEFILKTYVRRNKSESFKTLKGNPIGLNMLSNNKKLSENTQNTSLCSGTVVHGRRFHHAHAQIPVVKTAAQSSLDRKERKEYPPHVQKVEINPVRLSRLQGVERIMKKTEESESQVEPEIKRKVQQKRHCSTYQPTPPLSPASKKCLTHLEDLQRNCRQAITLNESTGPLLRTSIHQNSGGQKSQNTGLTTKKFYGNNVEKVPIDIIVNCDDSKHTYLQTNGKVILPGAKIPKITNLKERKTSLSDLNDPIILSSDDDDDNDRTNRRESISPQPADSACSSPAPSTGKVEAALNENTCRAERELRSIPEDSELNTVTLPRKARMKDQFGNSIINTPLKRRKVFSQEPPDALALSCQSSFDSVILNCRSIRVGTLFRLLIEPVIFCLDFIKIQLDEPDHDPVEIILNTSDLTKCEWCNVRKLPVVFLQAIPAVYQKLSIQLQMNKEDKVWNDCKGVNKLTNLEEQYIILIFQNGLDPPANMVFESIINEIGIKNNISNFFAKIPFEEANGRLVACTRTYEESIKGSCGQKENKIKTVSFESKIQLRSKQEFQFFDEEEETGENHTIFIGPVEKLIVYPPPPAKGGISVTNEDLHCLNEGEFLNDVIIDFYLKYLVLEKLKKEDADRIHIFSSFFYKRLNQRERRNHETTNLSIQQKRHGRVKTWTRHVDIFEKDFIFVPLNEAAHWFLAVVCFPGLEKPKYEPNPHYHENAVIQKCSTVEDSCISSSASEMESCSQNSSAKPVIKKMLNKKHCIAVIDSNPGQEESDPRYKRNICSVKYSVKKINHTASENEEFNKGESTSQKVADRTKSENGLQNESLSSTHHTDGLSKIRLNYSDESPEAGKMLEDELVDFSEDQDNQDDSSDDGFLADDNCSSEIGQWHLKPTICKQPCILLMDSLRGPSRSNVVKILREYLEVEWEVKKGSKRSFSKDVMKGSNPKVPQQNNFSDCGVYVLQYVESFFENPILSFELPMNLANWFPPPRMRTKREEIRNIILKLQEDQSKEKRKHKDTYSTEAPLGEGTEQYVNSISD

[11] = biological target: T4, Sentrin-specific protease 8 (Homo sapiens, UniProt Q96LD8); test: SENP8 protease inhibitors, SAR follow-up, biochemical, luminescence (AID 504501); assay type: functional
T4 sequence (Q96LD8 whole entry): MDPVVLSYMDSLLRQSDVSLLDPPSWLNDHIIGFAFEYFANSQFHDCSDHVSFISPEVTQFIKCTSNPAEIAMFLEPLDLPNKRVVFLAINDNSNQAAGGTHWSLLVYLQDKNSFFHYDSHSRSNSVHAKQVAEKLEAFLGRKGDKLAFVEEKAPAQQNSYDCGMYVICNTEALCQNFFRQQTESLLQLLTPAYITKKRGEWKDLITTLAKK

[12] = biological target: T5, Sentrin-specific protease 7 (Homo sapiens, UniProt Q9BQF6); test: SENP7 protease inhibitors, SAR follow-up, biochemical, luminescence (AID 504497); assay type: functional
T5 sequence (Q9BQF6 whole entry): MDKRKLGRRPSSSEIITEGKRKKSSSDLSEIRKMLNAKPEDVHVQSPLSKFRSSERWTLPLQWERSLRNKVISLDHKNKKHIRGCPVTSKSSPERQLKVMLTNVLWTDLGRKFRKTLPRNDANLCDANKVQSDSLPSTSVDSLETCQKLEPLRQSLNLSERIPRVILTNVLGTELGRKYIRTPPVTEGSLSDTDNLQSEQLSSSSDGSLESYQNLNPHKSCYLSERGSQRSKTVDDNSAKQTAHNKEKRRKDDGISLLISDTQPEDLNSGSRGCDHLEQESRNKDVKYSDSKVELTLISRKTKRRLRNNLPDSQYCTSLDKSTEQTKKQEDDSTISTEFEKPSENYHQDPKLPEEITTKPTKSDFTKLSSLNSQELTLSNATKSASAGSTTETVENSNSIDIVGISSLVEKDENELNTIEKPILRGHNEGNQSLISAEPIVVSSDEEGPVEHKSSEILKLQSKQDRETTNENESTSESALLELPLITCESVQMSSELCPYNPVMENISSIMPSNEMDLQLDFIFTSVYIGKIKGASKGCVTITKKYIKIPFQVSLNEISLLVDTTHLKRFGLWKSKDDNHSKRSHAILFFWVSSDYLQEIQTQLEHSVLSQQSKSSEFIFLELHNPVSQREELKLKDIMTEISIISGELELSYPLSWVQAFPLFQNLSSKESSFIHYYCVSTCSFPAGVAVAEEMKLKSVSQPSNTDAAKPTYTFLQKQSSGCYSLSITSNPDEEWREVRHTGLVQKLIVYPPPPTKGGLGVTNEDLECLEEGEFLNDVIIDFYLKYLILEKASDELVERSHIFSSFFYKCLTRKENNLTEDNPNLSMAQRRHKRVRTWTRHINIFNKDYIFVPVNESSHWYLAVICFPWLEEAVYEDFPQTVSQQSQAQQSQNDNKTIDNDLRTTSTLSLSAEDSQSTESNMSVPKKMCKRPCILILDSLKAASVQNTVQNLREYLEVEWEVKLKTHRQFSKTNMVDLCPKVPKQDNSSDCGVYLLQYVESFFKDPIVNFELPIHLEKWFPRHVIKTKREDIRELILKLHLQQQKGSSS

Caspase-3 [13] = biological target: T6, Caspase-3 (Homo sapiens, UniProt P42574); test: SAR Analysis of small molecule inhibitors of Sentrin-specific proteases (SENPs) using a Caspase-3 Selectivity assay. [Related pubchem assays (depositor defined):AID2540, AID2599, AID434973, AID489001]; assay type: functional
T6 sequence (P42574 whole entry): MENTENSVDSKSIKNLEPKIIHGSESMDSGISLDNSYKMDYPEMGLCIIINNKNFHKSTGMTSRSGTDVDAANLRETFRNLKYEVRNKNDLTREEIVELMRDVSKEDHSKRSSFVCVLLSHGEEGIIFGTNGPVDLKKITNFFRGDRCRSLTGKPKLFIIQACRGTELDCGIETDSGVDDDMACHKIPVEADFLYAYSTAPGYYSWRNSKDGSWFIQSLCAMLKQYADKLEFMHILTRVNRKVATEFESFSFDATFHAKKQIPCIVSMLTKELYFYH

[14] = StAR promoter reporter inhibition counter-screen, dose response, counter-screen for LRH-1 inverse agonist project, cell-based, luminescence, luciferase reporter (AID 651969); assay type: functional
[15] = biological target: Nuclear receptor subfamily 5 group A member 2 (Homo sapiens, UniProt O00482); assay type: functional, cell-based;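 further: HEK293T cells transfected with LRH-1 and a StAR promoter luciferase reporter; potency for inhibitors that lower LRH-1 driven reporter light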
Chain of Nuclear receptor subfamily 5 group A member 2 (O00482 whole entry): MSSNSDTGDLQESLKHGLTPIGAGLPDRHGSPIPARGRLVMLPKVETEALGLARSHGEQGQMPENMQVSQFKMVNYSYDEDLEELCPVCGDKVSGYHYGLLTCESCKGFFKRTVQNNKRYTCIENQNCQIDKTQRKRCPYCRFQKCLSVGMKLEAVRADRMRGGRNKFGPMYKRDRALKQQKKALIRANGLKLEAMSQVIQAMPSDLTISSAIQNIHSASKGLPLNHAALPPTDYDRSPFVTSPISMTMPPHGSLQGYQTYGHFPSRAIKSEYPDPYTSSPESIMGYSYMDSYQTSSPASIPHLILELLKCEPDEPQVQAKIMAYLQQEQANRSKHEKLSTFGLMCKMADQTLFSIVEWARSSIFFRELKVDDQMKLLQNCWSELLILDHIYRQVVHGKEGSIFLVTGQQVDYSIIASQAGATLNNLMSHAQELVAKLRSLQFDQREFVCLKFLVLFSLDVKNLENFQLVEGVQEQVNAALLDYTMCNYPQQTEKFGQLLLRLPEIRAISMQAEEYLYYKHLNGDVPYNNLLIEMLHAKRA

Steroidogenic factor 1 = Steroidogenic factor 1 (Homo sapiens, UniProt Q13285); test: Counterscreen for inverse agonists of the liver receptor homolog-1 (LRH-1; NR5A2): Luminescence-based cell-based high throughput dose response assay to identify inverse agonists of the Steroidogenic Factor 1 Nuclear Receptor (SF1; NR5A1).; assay type: functional
Chain of Steroidogenic factor 1 (Q13285 whole entry): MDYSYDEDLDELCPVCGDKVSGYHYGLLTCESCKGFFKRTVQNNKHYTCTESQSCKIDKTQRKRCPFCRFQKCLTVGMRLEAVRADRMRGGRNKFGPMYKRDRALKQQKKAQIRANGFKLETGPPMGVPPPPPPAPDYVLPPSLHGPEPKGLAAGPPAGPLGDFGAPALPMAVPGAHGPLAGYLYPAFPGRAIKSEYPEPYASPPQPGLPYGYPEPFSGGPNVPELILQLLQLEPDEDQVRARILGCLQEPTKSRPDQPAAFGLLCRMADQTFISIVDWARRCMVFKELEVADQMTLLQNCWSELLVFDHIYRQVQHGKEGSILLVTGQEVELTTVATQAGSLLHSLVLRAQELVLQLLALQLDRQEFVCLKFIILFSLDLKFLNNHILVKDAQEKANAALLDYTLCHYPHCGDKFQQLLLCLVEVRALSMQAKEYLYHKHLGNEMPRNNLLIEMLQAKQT

[16] = biological target: T5, Sentrin-specific protease 7; assay type: functional
[17] = biological target: T4, Sentrin-specific protease 8; assay type: functional
[18] = biological target: T3, Sentrin-specific protease 6; assay type: functional
Caspase-3 [19] = biological target: T6, Caspase-3; assay type: functional

Chain of Low molecular weight phosphotyrosine protein phosphatase (P24666 whole entry): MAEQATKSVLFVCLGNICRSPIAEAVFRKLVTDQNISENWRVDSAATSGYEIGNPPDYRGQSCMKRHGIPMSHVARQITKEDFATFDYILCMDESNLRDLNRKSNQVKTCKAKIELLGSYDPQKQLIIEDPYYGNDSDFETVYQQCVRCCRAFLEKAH

## COc1ccccc1CNc1nc(Nc2cccc(-c3cnco3)c2)c2sccc2n1
[1]
  IC50: 42.4 µM (inactive)
[2]
  AC50: 9.22 µM (active)
[3]
  AC50: 5.61 µM (active)
[4]
  AC50: 45.6 µM (active)

## COc1cc(C2Nc3cccc4cccc(c34)N2)cc(OC)c1O
Insulin-degrading enzyme [5]
  EC50: > 54.7 µM (inactive)
Insulin-degrading enzyme [6]
  EC50: > 54.7 µM (inactive)
Estrogen receptor beta
  IC50: 5.04 µM (not active)
Protein Tat
  IC50: 13.1 µM (inconclusive)
HEK293 [7]
  IC50: > 89.2 µM (inactive)
HEK293 [8]
  EC50: > 55.9 µM (inactive)
[9]
  CC50: 2.1 µM (active)

## O=C(NN=c1c(=O)c2ccccc2c1=O)c1ccncc1
[10]
  IC50: 9.3 µM (active)
[11]
  IC50: 33.3 µM (active)
[12]
  IC50: 17.8 µM (active)
Caspase-3 [13]
  IC50: 76.5 µM (active)

## Cc1nc2ccccc2c(=O)n1-c1ccc(C(=O)O)cc1
Insulin-degrading enzyme [5]
  EC50: > 54.7 µM (inactive)
Insulin-degrading enzyme [6]
  EC50: > 54.7 µM (inactive)
HEK293 [7]
  IC50: > 89.2 µM (inactive)
HEK293 [8]
  EC50: > 55.9 µM (inactive)

## COc1ccc(NC(=O)COC(=O)Cc2c[nH]c3ccccc23)cc1Cl
[14]
  IC50: 35.9 µM (inactive)
[15]
  IC50: 25.4 µM (inactive)
Steroidogenic factor 1
  IC50: 17.6 µM (inactive)

## O=C(COc1ccc(S(=O)(=O)N2CCCC2)cc1Cl)Nc1ccc2c(c1)OCO2
[14]
  IC50: 35.9 µM (inactive)
[15]
  IC50: 35.9 µM (inactive)
Steroidogenic factor 1
  IC50: 9.54 µM (active)

## CC(=O)Nc1ccc(-c2nc3cc(Cl)ccc3o2)cc1
[16]
  IC50: 2.77 µM (active)
[17]
  IC50: > 100 µM (inactive)
[10]
  IC50: > 99 µM (inactive)
[18]
  IC50: > 100 µM (inactive)
[11]
  IC50: > 99 µM (inactive)
[12]
  IC50: 2.7 µM (active)
Caspase-3 [13]
  IC50: 10.4 µM (active)
Caspase-3 [19]
  IC50: 54.9 µM (active)
